Measurements taken from US7176281B2 (priority 2003, dated 2007).
Where a SMILES comes first, the peptide text is derived from it. Where no end group is shown, it is not given here.

How the values were obtained:
[1] = tested on: sPLA2; assay: Inhibition of sPLA2 activity at fixed concentrations; assay type: biochemical
[2] = tested on: sPLA2; details: known selective sPLA2 inhibitor; cited from earlier work
[3] = target: T1, serum group IIA secretory phospholipase A2 (Homo sapiens, UniProt P14555); details: patients with severe sepsis; cited from earlier work
T1 construct: host or cells: patients' serum
T1 sequence (P14555 21-144): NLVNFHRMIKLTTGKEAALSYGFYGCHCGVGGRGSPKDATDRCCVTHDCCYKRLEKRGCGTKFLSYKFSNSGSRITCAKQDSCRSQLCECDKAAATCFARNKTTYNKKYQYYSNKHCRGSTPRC

[4] = target: T2, arthritis synovial fluid (human type IIA sPLA2) (Homo sapiens, UniProt P14555); assay: PLA2 inhibition, E. coli membrane assay, arthritis synovial fluid sPLA2; assay type: biochemical; details: read-out: IC50 (mean±SD; n=3)
T2 construct: arthritis synovial fluid (human type IIA sPLA2); from tissue; host or cells: human arthritis synovial fluid
T2 sequence (P14555 21-144): T1 sequence (P14555 21-144)

[5] = target: T3, 100-kDa human recombinant cytosolic form of PLA2 (cPLA2) (Homo sapiens, UniProt P47712); assay: PLA2 inhibition, E. coli membrane assay, cPLA2; assay type: biochemical
T3 sequence (P47712 1-749): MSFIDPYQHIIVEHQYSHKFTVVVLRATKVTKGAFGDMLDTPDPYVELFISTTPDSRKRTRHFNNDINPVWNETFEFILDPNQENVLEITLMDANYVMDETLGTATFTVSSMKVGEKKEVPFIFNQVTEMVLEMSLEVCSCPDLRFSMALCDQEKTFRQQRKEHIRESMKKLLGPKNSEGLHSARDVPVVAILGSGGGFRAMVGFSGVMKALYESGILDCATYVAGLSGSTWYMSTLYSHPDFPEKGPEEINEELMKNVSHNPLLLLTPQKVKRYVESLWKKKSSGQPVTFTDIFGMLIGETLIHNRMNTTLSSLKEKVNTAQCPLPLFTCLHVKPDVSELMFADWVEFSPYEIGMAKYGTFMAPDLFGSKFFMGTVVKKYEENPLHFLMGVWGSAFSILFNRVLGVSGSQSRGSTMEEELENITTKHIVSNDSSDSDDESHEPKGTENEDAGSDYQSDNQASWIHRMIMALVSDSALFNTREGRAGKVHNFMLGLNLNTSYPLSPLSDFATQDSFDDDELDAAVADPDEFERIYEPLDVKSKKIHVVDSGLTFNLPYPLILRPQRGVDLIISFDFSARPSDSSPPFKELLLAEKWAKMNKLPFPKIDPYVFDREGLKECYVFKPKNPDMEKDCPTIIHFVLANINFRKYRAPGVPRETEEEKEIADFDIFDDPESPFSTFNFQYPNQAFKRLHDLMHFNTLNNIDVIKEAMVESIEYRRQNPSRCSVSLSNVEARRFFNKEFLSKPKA

[6] = target: snake venom PLA2 (crotoxin B) (Crotalus durissus terrificus, UniProt P0CAS2); assay: biochemical
snake venom PLA2 (crotoxin B), sequence (P0CAS2 whole entry, looked up): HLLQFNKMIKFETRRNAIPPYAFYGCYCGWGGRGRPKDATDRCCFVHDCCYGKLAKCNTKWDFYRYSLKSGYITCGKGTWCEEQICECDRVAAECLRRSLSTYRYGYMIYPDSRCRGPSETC

[7] = target: T4, Group IIA purified human synovial sPLA2 (Homo sapiens, UniProt P14555); assay: In vitro inhibition of purified human synovial sPLA2, 3H-labelled E. coli membranes; assay type: biochemical; details: 3H-labelled E. coli membranes as substrate
T4 construct: purchased Cayman, USA
T4 sequence (P14555 21-144): T1 sequence (P14555 21-144)

[8] = tested on: mammalian (human and rat) type IIA sPLA2; assay type: binding
[9] = tested on: serum sPLA2; assay: Serum sPLA2 levels in Tg197 mice, E. coli membrane assay; assay type: in vivo, mouse; details: 3–4 weeks post-treatment
Description: Serum of transgenic (Tg197) mice and non-transgenic wild type controls were measured for sPLA2 using an Escherichia coli (E. coli) membrane assay as described previously [Eur J Biochem 2002, 269:719–727]. In brief, [^3H] arachidonate-labeled E. coli membrane suspension (5.8 μCi/μmol, Perkin Elmer, USA) was used as substrate, and 25 mM CaCl2-100 mM Tris-HCl (pH 7.5) as assay buffer. The reaction mixture containing substrate (20 μl), and either purified human synovial sPLA2 standard (1–80 ng/ml, Cayman, USA) or serum (10 μl) in a final volume of 250 μl in assay buffer was incubated at 37° C. for 1 h, and the reaction terminated with 750 μl of chilled PBS containing 1% BSA. 500 μl aliquots of the supernatant were then taken to measure the amount of [^3H] arachidonate released from the E. coli membrane using liquid scintillation counting (Beckman LS 6500 Scintillation Counter). The amount of sPLA2 present in the serum was calculated from the standard curve, and is expressed as ng/ml±SEM.
FIG. 12 depicts time course of serum sPLA2 levels. Serum sPLA2 levels were measured with an E. coli membrane assay in blood samples collected from untreated, P-NT.I- and scrambled P-NT.II-treated Tg197 mice at weekly intervals. Values are the mean±SD (n=4/group). […]

[10] = tested on: Tg197 transgenic mice (chronic inflammatory polyarthritis); assay: Tg197 transgenic mouse arthritis model, experiment 2 (4 weeks, time course); assay type: in vivo
Description: In experiment 2, mice were divided into 6 groups (A–F), and were injected i.p with 3 weekly doses (150 μg peptide in 50 μL DMSO per dose) of either the test peptide P-NT.II or the control peptide with the scrambled sequence for 4 consecutive weeks. Tg197 mice in Group B (n=18) were further divided into 4 sub-groups (B1, B2, B3, B4). At the end of 1st week, four Tg197 mice from Group B (sub-group B1) were sacrificed and both hind legs taken for histological processing and scorings. The remaining Tg197 mice from the other sub-groups B were continued with 3 regular doses of injections per week, and four Tg197 mice from each sub-group B2 and B3, were sacrificed at the end of 2nd and 3rd weeks, respectively. At the end of 4th week, all remaining Tg197 mice ([…]) were sacrificed for collection of joint specimens.
Disease monitoring was done by gross observations based on body weight measurements and arthritis scoring, which were done twice weekly after treatment until all the animals were sacrificed at 5th week in experiment 1, or at 4th week in experiment 2. Arthritis score (AS) was recorded on both ankle joints, and average scores as shown below were taken: • 0=no arthritis (normal appearance and flexion); • 0.5=onset of arthritis (mild joint swelling); • 1.0=mild arthritis (joint distortion); • 1.5=as above+finger deformation, less strength on flexion; • […]=moderate arthritis (severe swelling, joint deformation, no strength on flexion); • 2.5=as above+finger deformation in paws; • 3.0=heavy arthritis (ankylosis detected on flexion and severely impaired movement).
For histopathological scoring, both hind legs were dissected and fixed in 10% formaldehyde overnight, decalcified in citrate-buffered formic acid for 3 days at 4° C., and processed for light microscopy (LM). • Histopathological score (HS) was evaluated as follows: • 0=no detectable pathology, • 1=hyperplasia of the synovial membrane and presence of polymorphonuclear infiltrates • 2=pannus and fibrous tissue formation and focal subchondrial bone erosion • 3=articular cartilage destruction and bone erosion • 4=articular cartilage destruction and extensive bone erosion.
Transmission electron microscopy (TEM): Ankle joints dissected from the left hind leg of each mouse were split open longitudinally through the midline between the tibia and the talus, prefixed overnight with 2.5% glutaraldehyde in phosphate buffer, pH 7.4 (PB) and rinsed with PB. After fixing with 1% osmium tetroxide in PB for 2 h, they were dehydrated in a graded series of ethanol and processed into Araldite. Semi-thin sections (1.0μ) were cut and stained with methylene blue to observe the orientation and for histopathological scorings under the light microscope. Ultra-thin sections (80–90 nm) were then cut with an ultramicrotome (Riechert-Jung Ultracut E), mounted on copper grids, counterstained with uranyl acetate and lead citrate, and evaluated under electron microscope (CM120 Biotwin, FEI Company).
Anti-inflammatory activity of the candidate peptide P-NT.II was examined as a new treatment option for modulating rheumatoid arthritis (RA) in a transgenic animal model. To evaluate the potential effectiveness of the peptide as prophylaxis against RA, two separate experiments were performed in 4 week-old transgenic (Tg197) mice and non-transgenic wild-type (wt) mice. These transgenic mice (Tg197) express human tumor necrosis factor (TNFα), a cytokine which has been implicated in the pathogenesis of human RA.

[11] = target: T5, human recombinant cPLA2 (Homo sapiens, UniProt P47712); assay type: binding
T5 sequence (P47712 1-749): T3 sequence (P47712 1-749)

[12] = target: β-bungarotoxin (Group I) (Bungarus multicinctus, UniProt P00617)
[13] = target: crotoxin B (Group IIA) (Crotalus durissus terrificus, UniProt P0CAS2)
[14] = target: bee (Apis mellifera) venom PLA2 (Group III) (Apis mellifera, UniProt P00630)

For `CC(=O)O[C@@H]1C[C@@H]2[C@@]3(C)CCCC(C)(C)[C@@H]3CC[C@@]2(C)[C@@H]2CC=C(C=O)[C@H](C=O)[C@@]12C` [12-epi-scalaradial], the “inhibition of sPLA2 activity” value ([1]; 10 μM) is given as 75%, the “inhibition of sPLA2 activity” value ([1]; 20 μM) is given as 95% and the IC50 [2] is given as 5.4 µM.
In the case of `CCc1c(C(=O)C(N)=O)c2c(OCC(=O)O)cccc2n1Cc1ccccc1` [LY315920], the “serum group IIA secretory phospholipase A2 enzyme activity” value [3] is given as “inhibit”.
`CC[C@H](C)[C@H](NC(=O)[C@H](Cc1ccc(O)cc1)NC(=O)[C@@H](NC(=O)CNC(=O)[C@H](CC(=O)O)NC(=O)[C@H](Cc1c[nH]c2ccccc12)NC(=O)[C@@H](NC(=O)[C@H](Cc1cnc[nH]1)NC(=O)[C@@H](NC(=O)[C@H](CC(=O)O)NC(=O)[C@@H](NC(=O)[C@H](CCCNC(=N)N)NC(=O)CNC(=O)[C@@H](N)CC(C)C)C(C)C)[C@@H](C)CC)C(C)C)C(C)C)C(=O)N[C@@H](CCCNC(=N)N)C(=O)NCC(=O)N[C@@H](CCCNC(=N)N)C(=O)O` [P-NT.II] (H-LGRVDIHVWDGVYIRGR-OH) gave an IC50 [4] of 3.91 ± 1.67 µM, an IC50 ([5]; human recombinant cPLA2, read-out: IC50 (mean±SD; n=3)) of 23.9 ± 2.39 µM and an IC50 ([6]; IC50 (mean±SD; n=3)) of 4.91 ± 2.47 µM. For the same compound, the IC50 ([6]; IC50 ranging) was 3.9 to 4.9 µM and the IC50 [7] was 5.3 µM.
For `CC[C@H](C)[C@H](NC(=O)[C@H](CC(=O)O)NC(=O)[C@@H](NC(=O)[C@H](CCCNC(=N)N)NC(=O)[C@H](CCCNC(=N)N)NC(=O)[C@@H](N)Cc1ccc(O)cc1)C(C)C)C(=O)NCC(=O)N[C@@H](CC(C)C)C(=O)N[C@@H](CCCNC(=N)N)C(=O)N[C@H](C(=O)N[C@@H](Cc1c[nH]c2ccccc12)C(=O)N[C@@H](Cc1c[nH]cn1)C(=O)N[C@@H](CC(=O)O)C(=O)N[C@@H](CC(C)C)C(=O)NCC(=O)N[C@H](C(=O)NCC(=O)O)C(C)C)C(C)C` [Scrambled P-NT.II, reference compound] (H-YRRVDIGLRVWHDLGVG-OH; N-terminus and C-terminus assumed), the “competition with labeled P-NT.II for binding to type IIA sPLA2” value [8] was “failed to block”, the “inhibition of sPLA2” value [1] was “failed to inhibit” and the “circulating sPLA2 compared with untreated mice” value [9] was “not significantly different”. The “inhibition of cPLA2” value [5] was “failed to inhibit”, the IC50 ([6]; IC50) was > 250 µM and the “ultrastructural features of the articular chondrocytes (TEM)” value ([10]; 1–4 weeks post-treatment) was “more or less similar to those described for untreated Tg197 mice”. For the same compound, the “% of total at indicated HS scores, HS 2” value ([10]; 4 wk treatment) was 16.7%, the “% of total at indicated HS scores, HS 3” value ([10]; 4 wk treatment) was 83.3% and the “% of total at indicated HS scores, HS 4” value ([10]; 4 wk treatment) was 0%. The “Mean HS ± SEM” value ([10]; 4 wk treatment) was 3.25 ± 0.17.
With “biotinylated-P-NT.II: P-NT.II labeled with biotin, 0.18 mol biotin bound to 1 mol of P-NT.II (LGRVDIHVWDGVYIRGR; also: labeled with biotin, 0.18 mol biotin per mol peptide, site not given here)” the ELISA reaction [11] was “reacted positively”, the “binding to cPLA2 relative to sPLA2s” value [11] was “relatively much weaker” and the ELISA reaction [12] was “reacted positively”. For the same compound, the ELISA reaction [13] was “reacted positively” and the ELISA reaction [14] was “reacted positively”.
